# Reference: patent publication US10160747B2, “Compounds and methods for kinase modulation, and indications therefor” (Plexxikon Inc., priority 2016, dated 2018)
# pIC50: −log10 of the molar value.
# Biological target: T1, FLT3-D835Y (Homo sapiens, UniProt P36888, D835Y)
# T1 construct: purchased Invitrogen PV3967
# T1 sequence (P36888 27-993 D835Y): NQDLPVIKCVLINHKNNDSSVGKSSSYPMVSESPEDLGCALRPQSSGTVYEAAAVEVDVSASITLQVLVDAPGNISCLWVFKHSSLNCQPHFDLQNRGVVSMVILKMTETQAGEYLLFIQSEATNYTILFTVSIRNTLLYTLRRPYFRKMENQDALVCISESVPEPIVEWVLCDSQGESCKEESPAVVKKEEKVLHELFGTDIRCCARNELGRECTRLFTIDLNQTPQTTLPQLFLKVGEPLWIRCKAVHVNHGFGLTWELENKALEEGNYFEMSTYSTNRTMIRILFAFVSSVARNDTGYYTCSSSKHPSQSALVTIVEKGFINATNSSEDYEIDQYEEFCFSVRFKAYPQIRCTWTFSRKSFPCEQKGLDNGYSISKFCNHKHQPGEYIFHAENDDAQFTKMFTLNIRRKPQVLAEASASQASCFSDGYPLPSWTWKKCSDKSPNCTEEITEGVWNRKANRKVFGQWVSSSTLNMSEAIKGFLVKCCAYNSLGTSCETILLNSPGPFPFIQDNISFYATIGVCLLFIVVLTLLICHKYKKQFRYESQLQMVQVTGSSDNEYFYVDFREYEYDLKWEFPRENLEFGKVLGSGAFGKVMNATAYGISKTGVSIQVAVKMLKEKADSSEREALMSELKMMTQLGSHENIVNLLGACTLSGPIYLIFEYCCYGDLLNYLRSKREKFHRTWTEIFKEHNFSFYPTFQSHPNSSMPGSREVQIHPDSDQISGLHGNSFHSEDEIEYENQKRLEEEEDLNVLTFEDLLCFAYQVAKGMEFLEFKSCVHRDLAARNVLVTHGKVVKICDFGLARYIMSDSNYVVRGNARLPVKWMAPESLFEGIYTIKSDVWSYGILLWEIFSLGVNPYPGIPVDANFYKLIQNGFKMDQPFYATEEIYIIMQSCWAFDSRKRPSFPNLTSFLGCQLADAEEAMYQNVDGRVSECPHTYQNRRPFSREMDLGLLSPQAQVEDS
# Assay: FLT3-D835Y recombinant enzyme kinase assay (AlphaScreen)
# Assay type: biochemical
# Details: 8 pt, GMean
# Outline: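 Kinase activity of recombinant FLT3-ITD, FLT3-D835Y and c-KIT was followed via phosphotyrosine formation on a 30 nM biotin-peptide substrate, captured on streptavidin donor and anti-phosphotyrosine acceptor AlphaScreen beads. ATP was set at 10 μM for FLT3 and 100 μM for c-KIT.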
row,pIC50,SMILES
1,5.00 to 10.00,"CC(C)(O)C#Cc1cc2cc(-c3ccc(CC(=O)Nc4cncc(C(F)(F)F)c4)cc3)cnc2[nH]1 [Compound P-0204, 2-[4-[2-(3-hydroxy-3-methyl-but-1-ynyl)-1H-pyrrolo[2,3-b]pyridin-5-yl]phenyl]-N-[5-(trifluoromethyl)-3-pyridyl]acetamide]"
2,5.00 to 10.00,"Cn1cc(Nc2ncc(-c3ccc(CC(=O)Nc4cncc(C(F)(F)F)c4)cc3F)cn2)cn1 [Compound P-0205, 2-[3-fluoro-4-[2-[(1-methylpyrazol-4-yl)amino]pyrimidin-5-yl]phenyl]-N-[5-(trifluoromethyl)-3-pyridyl]acetamide]"
3,5.00 to 10.00,"COc1ncc(NC(=O)Cc2ccc(-c3cnc(Nc4cnn(C)c4)nc3)c(F)c2)cc1C(F)(F)F [Compound P-0206, 2-[3-fluoro-4-[2-[(1-methylpyrazol-4-yl)amino]pyrimidin-5-yl]phenyl]-N-[6-methoxy-5-(trifluoromethyl)-3-pyridyl]acetamide]"
4,5.00 to 10.00,"Cn1cc(Nc2ncc(-c3cc(F)c(CC(=O)Nc4cncc(C(F)(F)F)c4)cc3F)cn2)cn1 [Compound P-0207, 2-[2,5-difluoro-4-[2-[(1-methylpyrazol-4-yl)amino]pyrimidin-5-yl]phenyl]-N-[5-(trifluoromethyl)-3-pyridyl]acetamide]"
5,5.00 to 10.00,"COc1ncc(NC(=O)Cc2cc(F)c(-c3cnc(Nc4cnn(C)c4)nc3)cc2F)cc1C(F)(F)F [Compound P-0208, 2-[2,5-difluoro-4-[2-[(1-methylpyrazol-4-yl)amino]pyrimidin-5-yl]phenyl]-N-[6-methoxy-5-(trifluoromethyl)-3-pyridyl]acetamide]"
6,5.00 to 10.00,"O=C(Cc1ccc(-c2cnc(Nc3cnn(C(F)F)c3)nc2)cc1)Nc1cncc(C(F)(F)F)c1 [Compound P-0209, 2-[4-[2-[[1-(difluoromethyl)pyrazol-4-yl]amino]pyrimidin-5-yl]phenyl]-N-[5-(trifluoromethyl)-3-pyridyl]acetamide]"
7,5.00 to 10.00,"Cc1ncc(NC(=O)Cc2ccc(-c3cnc(Nc4cnn(C(F)F)c4)nc3)cc2)cc1C(F)(F)F [Compound P-0210, 2-[4-[2-[[1-(difluoromethyl)pyrazol-4-yl]amino]pyrimidin-5-yl]phenyl]-N-[6-methyl-5-(trifluoromethyl)-3-pyridyl]acetamide]"

# More lines, now with the values behind:
row,SMILES,pIC50
1,"COc1ncc(NC(=O)Cc2ccc(-c3cnc4[nH]c(-c5ccc(C#N)nc5)cc4c3)cc2F)cc1C(F)(F)F [Compound P-0011, 2-[4-[2-(6-cyano-3-pyridyl)-1H-pyrrolo[2,3-b]pyridin-5-yl]-2-fluoro-phenyl]-N-[6-methoxy-5-(trifluoromethyl)-3-pyridyl]acetamide]",5.00 to 10.00
2,"COc1ncc(NC(=O)Cc2ccc(-c3cnc4[nH]c(-c5ccnc(C#N)c5)cc4c3)cc2F)cc1C(F)(F)F [Compound P-0013, 2-[4-[2-(2-cyano-4-pyridyl)-1H-pyrrolo[2,3-b]pyridin-5-yl]-2-fluoro-phenyl]-N-[6-methoxy-5-(trifluoromethyl)-3-pyridyl]acetamide]",5.00 to 10.00
3,"COc1ncc(NC(=O)Cc2ccc(-c3cnc4[nH]c(-c5ccc(C#N)nc5)cc4c3)c(F)c2)cc1C(F)(F)F [Compound P-0014, 2-[4-[2-(6-cyano-3-pyridyl)-1H-pyrrolo[2,3-b]pyridin-5-yl]-3-fluoro-phenyl]-N-[6-methoxy-5-(trifluoromethyl)-3-pyridyl]acetamide]",5.00 to 10.00
4,"COc1ncc(NC(=O)Cc2ccc(-c3cnc4[nH]c(-c5cnn(C(F)F)c5)cc4c3)cc2F)cc1C(F)(F)F [Compound P-0015, 2-[4-[2-[1-(difluoromethyl)pyrazol-4-yl]-1H-pyrrolo[2,3-b]pyridin-5-yl]-2-fluoro-phenyl]-N-[6-methoxy-5-(trifluoromethyl)-3-pyridyl]acetamide]",5.00 to 10.00
5,"COc1ncc(NC(=O)Cc2ccc(-c3cnc4[nH]c(-c5ccnc(C#N)c5)cc4c3)c(F)c2)cc1C(F)(F)F [Compound P-0016, 2-[4-[2-(2-cyano-4-pyridyl)-1H-pyrrolo[2,3-b]pyridin-5-yl]-3-fluoro-phenyl]-N-[6-methoxy-5-(trifluoromethyl)-3-pyridyl]acetamide]",5.00 to 10.00
6,"Cn1cc(Nc2ncc(-c3ccc(CC(=O)Nc4cc(C(F)(F)F)ccn4)cc3F)cn2)cn1 [Compound P-0017, 2-[3-fluoro-4-[2-[(1-methylpyrazol-4-yl)amino]pyrimidin-5-yl]phenyl]-N-[4-(trifluoromethyl)-2-pyridyl]acetamide]",5.00 to 10.00
7,"Cn1cnc(Nc2ncc(-c3ccc(CC(=O)Nc4cc(C(F)(F)F)ccn4)cc3F)cn2)c1 [Compound P-0018, 2-[3-fluoro-4-[2-[(1-methylimidazol-4-yl)amino]pyrimidin-5-yl]phenyl]-N-[4-(trifluoromethyl)-2-pyridyl]acetamide]",5.00 to 10.00
8,"Cn1cc(Nc2ncc(-c3cc(F)c(CC(=O)Nc4cc(C(F)(F)F)ccn4)cc3F)cn2)cn1 [Compound P-0019, 2-[2,5-difluoro-4-[2-[(1-methylpyrazol-4-yl)amino]pyrimidin-5-yl]phenyl]-N-[4-(trifluoromethyl)-2-pyridyl]acetamide]",5.00 to 10.00
9,"Cn1cnc(Nc2ncc(-c3cc(F)c(CC(=O)Nc4cc(C(F)(F)F)ccn4)cc3F)cn2)c1 [Compound P-0020, 2-[2,5-difluoro-4-[2-[(1-methylimidazol-4-yl)amino]pyrimidin-5-yl]phenyl]-N-[4-(trifluoromethyl)-2-pyridyl]acetamide]",5.00 to 10.00
10,"O=C(Cc1cc(F)c(-c2cnc(Nc3cnn(C(F)F)c3)nc2)cc1F)Nc1cc(C(F)(F)F)ccn1 [Compound P-0021, 2-[4-[2-[[1-(difluoromethyl)pyrazol-4-yl]amino]pyrimidin-5-yl]-2,5-difluoro-phenyl]-N-[4-(trifluoromethyl)-2-pyridyl]acetamide]",5.00 to 10.00
11,"Cn1cnc(Nc2ncc(-c3ccc(CC(=O)Nc4cc(C(F)(F)F)ccn4)cc3)cn2)c1 [Compound P-0022, 2-[4-[2-[(1-methylimidazol-4-yl)amino]pyrimidin-5-yl]phenyl]-N-[4-(trifluoromethyl)-2-pyridyl]acetamide]",5.00 to 10.00
12,"O=C(Cc1ccc(-c2cnc(Nc3cnn(C(F)F)c3)nc2)cc1)Nc1cc(C(F)(F)F)ccn1 [Compound P-0023, 2-[4-[2-[[1-(difluoromethyl)pyrazol-4-yl]amino]pyrimidin-5-yl]phenyl]-N-[4-(trifluoromethyl)-2-pyridyl]acetamide]",5.00 to 10.00
13,"O=C(Cc1ccc(-c2cnc3[nH]c(-c4ccnc(N5CCOCC5)c4)cc3c2)c(F)c1)Nc1cncc(C(F)(F)F)c1 [Compound P-0201, 2-[3-fluoro-4-[2-(2-morpholino-4-pyridyl)-1H-pyrrolo[2,3-b]pyridin-5-yl]phenyl]-N-[5-(trifluoromethyl)-3-pyridyl]acetamide]",5.00 to 10.00
14,"CCOc1n[nH]c2ncc(-c3ccc(CC(=O)Nc4cnc(OC)c(C(F)(F)F)c4)cc3F)cc12 [Compound P-0202, 2-[4-(3-ethoxy-1H-pyrazolo[3,4-b]pyridin-5-yl)-3-fluoro-phenyl]-N-[6-methoxy-5-(trifluoromethyl)-3-pyridyl]acetamide]",5.00 to 10.00
15,"COc1ncc(NC(=O)Cc2ccc(-c3cnc4[nH]nc(N)c4c3)c(F)c2)cc1C(F)(F)F [Compound P-0203, 2-[4-(3-amino-1H-pyrazolo[3,4-b]pyridin-5-yl)-3-fluoro-phenyl]-N-[6-methoxy-5-(trifluoromethyl)-3-pyridyl]acetamide]",5.00 to 10.00
